Test results reported in ChEMBL document CHEMBL1201862, “PubChem BioAssay data set” (2004).
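Test compounds were applied to cells in 96-well plates for 48 hours at 5 doses. Abbreviation: GI50, concentration required for 50% inhibition of growth.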 Activity calls are given as the source filed them. Cut-off read from the data, not from the text of the source: active = GI50 up to about 1.1 µM and inactive = higher.

Experiments:
Assay in all cases: NCI tumour cell line growth inhibition, 48 h
OVCAR-5 = tested on: OVCAR-5
LOX IMVI = tested on: LOX IMVI
IGROV-1 = tested on: IGROV-1
SF-539 = tested on: SF-539
NCI-H460 = tested on: NCI-H460
RXF 393 = tested on: RXF 393
SW-620 = tested on: SW-620
RPMI-8226 = tested on: RPMI-8226
HOP-62 = tested on: HOP-62
HCC 2998 = tested on: HCC 2998
COLO 205 = tested on: COLO 205
K562 = tested on: K562
HL-60 = tested on: HL-60
RXF 631 = tested on: RXF 631
KM12 = tested on: KM12
HCT-116 = tested on: HCT-116
U-251 = tested on: U-251
HOP-18 = tested on: HOP-18
NCI-H522 = tested on: NCI-H522
HOP-92 = tested on: HOP-92
OVCAR-8 = tested on: OVCAR-8
HT-29 = tested on: HT-29
SN12C = tested on: SN12C
M14 = tested on: M14
ACHN = tested on: ACHN
NCI-H23 = tested on: NCI-H23
NCI-H226 = tested on: NCI-H226
SF-295 = tested on: SF-295
CCRF-CEM = tested on: CCRF-CEM
SNB-78 = tested on: SNB-78
KM-20L2 = tested on: KM-20L2
SK-MEL-5 = tested on: SK-MEL-5
SF-268 = tested on: SF-268
OVCAR-3 = tested on: OVCAR-3
Malme-3M = tested on: Malme-3M
OVCAR-4 = tested on: OVCAR-4
TK-10 = tested on: TK-10
SR = tested on: SR
SK-OV-3 = tested on: SK-OV-3
MOLT-4 = tested on: MOLT-4
SNB-19 = tested on: SNB-19
M19-MEL = tested on: M19-MEL
A549 = tested on: A549
A498 = tested on: A498
SNB-75 = tested on: SNB-75
LXFL 529 = tested on: LXFL 529
DMS-114 = tested on: DMS-114
DMS-273 = tested on: DMS-273
UACC-257 = tested on: UACC-257
UO-31 = tested on: UO-31
UACC-62 = tested on: UACC-62
786-0 = tested on: 786-0
HCT-15 = tested on: HCT-15
CAKI-1 = tested on: CAKI-1
SK-MEL-2 = tested on: SK-MEL-2

**Q.** Which GI50 (OVCAR-5) does the source give for `CCCC(=O)OC[n+]1ccc2c(C)c3[nH]c4ccccc4c3c(C)c2c1` here?
**A.** 1.04 µM (active)

**Q.** And the GI50 (LOX IMVI)?
**A.** 0.341 µM (active)

**Q.** And the GI50 (IGROV-1)?
**A.** 0.51 µM (active)

**Q.** What about the GI50 (SF-539) of the same compound?
**A.** 0.519 µM (active)

**Q.** And the GI50 (NCI-H460)?
**A.** 0.0208 µM (active)

**Q.** And the GI50 (RXF 393)?
**A.** 0.067 µM (active)

**Q.** What about the GI50 (SW-620) of the same compound?
**A.** 0.215 µM (active)

**Q.** And the GI50 (RPMI-8226)?
**A.** 0.0374 µM (active)

**Q.** And the GI50 (HOP-62)?
**A.** 0.914 µM (active)

**Q.** What about the GI50 (HCC 2998) of the same compound?
**A.** 0.611 µM (active)

**Q.** And the GI50 (COLO 205)?
**A.** 0.705 µM (active)

**Q.** And the GI50 (K562)?
**A.** 0.466 µM (active)

**Q.** And the GI50 (HL-60)?
**A.** 1.68 µM (inactive)

**Q.** What about the GI50 (RXF 631) of the same compound?
**A.** 0.378 µM (active)

**Q.** And the GI50 (KM12)?
**A.** 0.377 µM (active)

**Q.** What about the GI50 (HCT-116) of the same compound?
**A.** 0.118 µM (active)

**Q.** What about the GI50 (U-251) of the same compound?
**A.** 0.498 µM (active)

**Q.** What about the GI50 (HOP-18) of the same compound?
**A.** 1.09 µM (active)

**Q.** And the GI50 (NCI-H522)?
**A.** 0.832 µM (active)

**Q.** What about the GI50 (HOP-92) of the same compound?
**A.** 1.32 µM (inactive)

**Q.** What about the GI50 (OVCAR-8) of the same compound?
**A.** 0.394 µM (active)

**Q.** What about the GI50 (HT-29) of the same compound?
**A.** > 100 µM (inactive)

**Q.** And the GI50 (SN12C)?
**A.** 0.404 µM (active)

**Q.** And the GI50 (M14)?
**A.** 1.12 µM (inactive)

**Q.** And the GI50 (ACHN)?
**A.** 0.504 µM (active)

**Q.** And the GI50 (NCI-H23)?
**A.** 0.064 µM (active)

**Q.** What about the GI50 (NCI-H226) of the same compound?
**A.** 1.11 µM (active)

**Q.** What about the GI50 (SF-295) of the same compound?
**A.** 0.43 µM (active)

**Q.** What about the GI50 (CCRF-CEM) of the same compound?
**A.** 1.66 µM (inactive)

**Q.** What about the GI50 (SNB-78) of the same compound?
**A.** 1.1 µM (active)

**Q.** What about the GI50 (KM-20L2) of the same compound?
**A.** 0.478 µM (active)

**Q.** And the GI50 (SK-MEL-5)?
**A.** 1.54 µM (inactive)

**Q.** And the GI50 (SF-268)?
**A.** 0.661 µM (active)

**Q.** What about the GI50 (OVCAR-3) of the same compound?
**A.** 1.2 µM (inactive)

**Q.** And the GI50 (Malme-3M)?
**A.** 1.33 µM (inactive)

**Q.** And the GI50 (OVCAR-4)?
**A.** 0.706 µM (active)

**Q.** And the GI50 (TK-10)?
**A.** 1.71 µM (inactive)

**Q.** What about the GI50 (SR) of the same compound?
**A.** 0.0681 µM (active)

**Q.** What about the GI50 (SK-OV-3) of the same compound?
**A.** 0.547 µM (active)

**Q.** And the GI50 (MOLT-4)?
**A.** 0.0661 µM (active)

**Q.** What about the GI50 (SNB-19) of the same compound?
**A.** 0.935 µM (active)

**Q.** What about the GI50 (M19-MEL) of the same compound?
**A.** > 100 µM (inactive)

**Q.** What about the GI50 (A549) of the same compound?
**A.** 0.317 µM (active)

**Q.** What about the GI50 (A498) of the same compound?
**A.** 1.34 µM (inactive)

**Q.** What about the GI50 (SNB-75) of the same compound?
**A.** > 100 µM (inactive)

**Q.** What about the GI50 (LXFL 529) of the same compound?
**A.** 0.57 µM (active)

**Q.** What about the GI50 (DMS-114) of the same compound?
**A.** 0.641 µM (active)

**Q.** What about the GI50 (DMS-273) of the same compound?
**A.** 0.101 µM (active)

**Q.** And the GI50 (UACC-257)?
**A.** 1.35 µM (inactive)

**Q.** And the GI50 (UO-31)?
**A.** 1.87 µM (inactive)

**Q.** What about the GI50 (UACC-62) of the same compound?
**A.** 1.5 µM (inactive)

**Q.** What about the GI50 (786-0) of the same compound?
**A.** 0.305 µM (active)

**Q.** What about the GI50 (HCT-15) of the same compound?
**A.** 0.274 µM

**Q.** What about the GI50 (CAKI-1) of the same compound?
**A.** 1.29 µM (inactive)

**Q.** What about the GI50 (SK-MEL-2) of the same compound?
**A.** 1.51 µM (inactive)
